Tests used:
TNF = type: binding
[1] = system: Human prostate adenocarcinoma PC-3 cells; design: species or system SCID mice; settings: mouse, in vivo
[2] = mouse, in vivo
Endothelin ETB = target: T1, Endothelin ETB (Homo sapiens, UniProt P24530); type: binding
T1 construct: MDS Pharma services, Taipei, Taiwan (contract assay)
T1 sequence (P24530 27-442): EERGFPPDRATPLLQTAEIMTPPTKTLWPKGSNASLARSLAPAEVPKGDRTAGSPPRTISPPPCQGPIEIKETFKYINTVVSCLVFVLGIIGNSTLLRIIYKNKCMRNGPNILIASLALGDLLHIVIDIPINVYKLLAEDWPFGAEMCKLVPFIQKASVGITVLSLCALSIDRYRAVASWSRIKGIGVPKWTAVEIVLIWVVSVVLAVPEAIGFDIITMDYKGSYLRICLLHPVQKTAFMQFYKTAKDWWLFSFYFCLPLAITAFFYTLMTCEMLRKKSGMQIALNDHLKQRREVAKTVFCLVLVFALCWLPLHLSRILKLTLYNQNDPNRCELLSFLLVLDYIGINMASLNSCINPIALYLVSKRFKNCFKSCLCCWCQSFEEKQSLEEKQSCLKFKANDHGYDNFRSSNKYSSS

Calcitonin = target: T2, Calcitonin (Homo sapiens, UniProt P30988); type: binding
T2 construct: MDS Pharma services, Taipei, Taiwan (contract assay)
T2 sequence (P30988 25-474): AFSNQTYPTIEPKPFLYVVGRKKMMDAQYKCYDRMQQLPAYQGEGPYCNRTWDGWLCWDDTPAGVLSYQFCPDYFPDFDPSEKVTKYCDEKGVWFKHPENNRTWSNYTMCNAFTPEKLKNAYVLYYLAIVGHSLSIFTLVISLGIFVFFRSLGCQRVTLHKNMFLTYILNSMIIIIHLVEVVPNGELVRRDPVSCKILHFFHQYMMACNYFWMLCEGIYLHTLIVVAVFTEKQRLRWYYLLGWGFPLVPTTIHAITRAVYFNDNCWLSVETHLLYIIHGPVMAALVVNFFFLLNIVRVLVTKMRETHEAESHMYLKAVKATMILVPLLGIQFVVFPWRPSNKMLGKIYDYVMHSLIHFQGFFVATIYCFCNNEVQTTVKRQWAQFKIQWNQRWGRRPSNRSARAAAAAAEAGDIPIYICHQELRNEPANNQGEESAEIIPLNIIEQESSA

In the case of “RD: rhodostomin variant having a RGD motif variant ^48PRLDMP^53, SEQ ID NO: 36”, the “Inhibition, TNF” value (TNF) is reported as 4%, the “PC-3 tumor-induced osteolysis (radiographs)” value [1] is reported as “inhibited osteolysis” and the “inhibition in tumor cell-induced swelling in hind legs” value [1] is reported as 43.8±4.1%. The “tumor-induced decrease in body weight” value [1] was “prevented the loss of body weight”, the “tumor-induced increase in C-terminal telopeptides of type-I collagen” value [1] was “inhibited a tumor-induced increase in C-terminal telopeptides” and the “tumor-induced increase in the serum calcium concentration (hypercalcemia)” value ([1]; 1.5 mg/kg) was “inhibited a tumor-induced increase in the serum calcium concentration”. For the same substance, the “tumor growth in legs (in words)” value ([1]; sc, 1.5 mg/kg) was “inhibited tumor growth”, the “effect on tail bleeding (clotting) time” value [2] was “only slightly affected the clotting time” and the “Inhibition, Endothelin ETB” value (Endothelin ETB) was 10%. The “Inhibition, Calcitonin” value (Calcitonin) was 4%.
